Structures can show the parent of a compound that is named as a salt.
What was measured:
CYP2C19 = CYP2C19 (Homo sapiens, UniProt P33261); assay: in vitro; settings: microsomes, pH 7.4
CYP3A4 = CYP3A4 (Homo sapiens, UniProt P08684); assay: in vitro; settings: microsomes, pH 7.4
CYP2B6 = molecular target: T1, CYP2B6 (Homo sapiens, UniProt P20813); assay: in vitro; settings: microsomes, pH 7.4
T1 sequence (P20813 1-491): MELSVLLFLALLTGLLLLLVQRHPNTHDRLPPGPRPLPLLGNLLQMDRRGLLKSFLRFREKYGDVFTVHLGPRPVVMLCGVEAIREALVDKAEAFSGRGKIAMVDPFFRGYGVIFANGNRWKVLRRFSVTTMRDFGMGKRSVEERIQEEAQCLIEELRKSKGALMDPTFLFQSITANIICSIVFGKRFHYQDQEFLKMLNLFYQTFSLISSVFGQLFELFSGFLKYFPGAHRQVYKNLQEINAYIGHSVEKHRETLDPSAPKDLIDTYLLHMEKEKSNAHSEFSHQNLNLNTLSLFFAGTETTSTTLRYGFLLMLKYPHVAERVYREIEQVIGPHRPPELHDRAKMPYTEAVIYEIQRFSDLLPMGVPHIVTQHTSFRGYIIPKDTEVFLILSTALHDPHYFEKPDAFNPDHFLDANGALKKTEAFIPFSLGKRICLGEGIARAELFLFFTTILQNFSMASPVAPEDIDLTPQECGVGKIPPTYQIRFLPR

CYP2D6 = CYP2D6 (Homo sapiens, UniProt P10635); assay: in vitro; settings: microsomes, pH 7.4
Chain of CYP2D6 (P10635 whole entry): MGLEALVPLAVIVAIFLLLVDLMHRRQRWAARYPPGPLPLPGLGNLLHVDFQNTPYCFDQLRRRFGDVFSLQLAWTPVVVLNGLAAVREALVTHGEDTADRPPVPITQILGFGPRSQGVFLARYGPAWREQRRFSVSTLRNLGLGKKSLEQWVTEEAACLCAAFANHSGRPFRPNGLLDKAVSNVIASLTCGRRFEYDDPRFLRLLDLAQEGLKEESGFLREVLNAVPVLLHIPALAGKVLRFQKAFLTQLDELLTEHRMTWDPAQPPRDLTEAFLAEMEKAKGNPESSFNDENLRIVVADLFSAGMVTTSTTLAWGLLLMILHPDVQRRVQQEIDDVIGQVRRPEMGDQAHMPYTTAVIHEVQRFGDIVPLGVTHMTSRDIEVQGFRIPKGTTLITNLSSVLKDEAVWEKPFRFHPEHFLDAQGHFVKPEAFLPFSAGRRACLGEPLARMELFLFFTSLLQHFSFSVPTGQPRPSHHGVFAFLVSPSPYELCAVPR

CYP2C8 [1] = molecular target: T2, CYP2C8 (Homo sapiens, UniProt P10632); assay: in vitro; settings: microsomes, pH 7.4
T2 sequence (P10632 1-490): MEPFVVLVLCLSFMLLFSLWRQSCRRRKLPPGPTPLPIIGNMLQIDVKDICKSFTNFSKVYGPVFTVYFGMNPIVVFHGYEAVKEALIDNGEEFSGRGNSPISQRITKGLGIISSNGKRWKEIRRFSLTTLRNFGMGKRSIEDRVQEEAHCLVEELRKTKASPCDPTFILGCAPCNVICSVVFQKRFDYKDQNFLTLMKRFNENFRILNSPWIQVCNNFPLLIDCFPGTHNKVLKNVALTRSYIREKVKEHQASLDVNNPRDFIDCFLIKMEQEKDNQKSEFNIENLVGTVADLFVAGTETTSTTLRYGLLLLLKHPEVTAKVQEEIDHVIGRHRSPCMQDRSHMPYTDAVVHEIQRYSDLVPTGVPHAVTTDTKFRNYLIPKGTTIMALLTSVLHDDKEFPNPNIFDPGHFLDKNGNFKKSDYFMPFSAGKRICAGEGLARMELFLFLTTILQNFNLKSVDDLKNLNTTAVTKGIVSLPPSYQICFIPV

CYP2C8 [2] = molecular target: T2, CYP2C8; assay: CYP450 panel inhibition in human liver microsomes, 2C8 (amodiaquine); settings: 10 μM, substrate amodiaquine
[3] = system: phospho-MEK in A549 cells; assay: Cell-based pMEK (pMEK:tMEK, CRAF bypass) in A549 cells; settings: for A549-CRAF BP 100 nM, 2 h: pMEK to total MEK normalized to DMSO control
In short: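 Cells (A549 or A375) exposed 2 h to compounds at varying concentrations in duplicate, then lysed; lysates set to 1.5 mg/mL for pMEK by quantitative Western (Jess). Phospho-MEK/total MEK ratio normalized to DMSO control.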

[4] = Human liver microsome stability (t1/2, Clint)
[5] = Mouse liver microsome stability (t1/2, Clint); settings: for half-life at 1 μM / microsomal CLint at 1 μM: mouse, liver microsomes, pH 7.4
[6] = eLogD (lipophilicity; pH 7.4) by HPLC; type: physicochemical
Method: Test compounds were dissolved in DMSO at a concentration of 10 mM and further diluted with methanol:water 1:1. Samples were analyzed using gradient HPLC with three different isocratic mobile phases of 0.25% octanol in methanol (60, 65 and 70%) and 20 mM MOPS buffer (pH 7.4) with decylamine. If needed, (for low E log Doct compounds) the isocratic mobile phases were adjusted to e.g. 40, 45 and 50% methanol. Peaks were detected using a diode array at absorbance 220-320 nm.
Capacity factors data (k′_=(tr−_t0)/t0) obtained at various amounts of methanol were extrapolated to 0% methanol and k′w values are determined using a linear procedure. E log Doct (7.4) is calculated using a series of reference standards with known Log D values. Each experiment was performed in triplicate.

[7] = system: phospho-ERK in A375 cells; assay: Cell-based pERK (pERK:tERK) in A375 cells; settings: for pERK/tERK ratio normalized to DMSO: A375 (BRAF p.V600E), 100 nM
Method: Materials and Methods: A549 or A375 cells were seeded in 6-well plates at an appropriate seeding density on day 0. On day 2 or 3, after checking the health and confluency of cells, the media was aspirated and replaced with 1 mL media containing a predetermined concentration of compound and incubated for 2 hours. After 2 hours, the media was aspirated, and the cells washed 2 times with cold PBS. Cells were lysed on ice, with 50 uL 1×CST lysis buffer +1 mM PMSF for 5 minutes. After 5 minutes, cells were removed using a scraper and transferred to cold 1.5 mL tubes, and centrifuged for 10 min, 4° C., 14,000×g. Supernatant was gently removed and snap frozen in liquid nitrogen. Protein concentration of the lysate was determined using Bradford Reagent (analyzed using SpectraMax M2E) and diluted to 1 mg/mL or pERK or 1.5 mg/mL for pMEK analysis. […] All dilutions were in Milk-free antibody diluent.
A549 or […] cells were treated in duplicate for two hours with compounds at varying concentrations. After two hours, the cells were lysed, snap frozen, and stored at −80° C. After storage, the lysate was quantified with the Bradford assay. Before the lysates were prepared to run on the Jess, the lysates were diluted to 1 mg/mL for pERK analysis and 1.5 mg/mL pMEK analysis using quantitative Western blotting. ERK and MEK phosphorylation levels were estimated by taking the ratio of phospho-protein to total protein and normalizing to the DMSO control.
The nine models are described in Table 16.

[8] = human, liver microsomes, pH 7.4
[9] = 1 μM, 0.5 mg/ml microsomal protein

Chain of CYP2C19 (P33261 whole entry): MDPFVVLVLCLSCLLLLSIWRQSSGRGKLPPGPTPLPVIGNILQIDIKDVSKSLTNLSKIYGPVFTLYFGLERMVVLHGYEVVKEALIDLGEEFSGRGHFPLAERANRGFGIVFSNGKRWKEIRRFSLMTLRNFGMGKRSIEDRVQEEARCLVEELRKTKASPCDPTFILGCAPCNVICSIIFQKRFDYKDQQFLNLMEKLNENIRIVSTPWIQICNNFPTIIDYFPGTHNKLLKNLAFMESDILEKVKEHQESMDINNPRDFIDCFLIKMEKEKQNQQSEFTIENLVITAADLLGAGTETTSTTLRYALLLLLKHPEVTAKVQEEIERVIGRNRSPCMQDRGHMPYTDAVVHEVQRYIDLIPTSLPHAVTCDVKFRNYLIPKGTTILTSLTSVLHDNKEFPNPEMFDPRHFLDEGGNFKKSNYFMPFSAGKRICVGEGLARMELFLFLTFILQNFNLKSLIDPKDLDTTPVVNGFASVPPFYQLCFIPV
Chain of CYP3A4 (P08684 whole entry): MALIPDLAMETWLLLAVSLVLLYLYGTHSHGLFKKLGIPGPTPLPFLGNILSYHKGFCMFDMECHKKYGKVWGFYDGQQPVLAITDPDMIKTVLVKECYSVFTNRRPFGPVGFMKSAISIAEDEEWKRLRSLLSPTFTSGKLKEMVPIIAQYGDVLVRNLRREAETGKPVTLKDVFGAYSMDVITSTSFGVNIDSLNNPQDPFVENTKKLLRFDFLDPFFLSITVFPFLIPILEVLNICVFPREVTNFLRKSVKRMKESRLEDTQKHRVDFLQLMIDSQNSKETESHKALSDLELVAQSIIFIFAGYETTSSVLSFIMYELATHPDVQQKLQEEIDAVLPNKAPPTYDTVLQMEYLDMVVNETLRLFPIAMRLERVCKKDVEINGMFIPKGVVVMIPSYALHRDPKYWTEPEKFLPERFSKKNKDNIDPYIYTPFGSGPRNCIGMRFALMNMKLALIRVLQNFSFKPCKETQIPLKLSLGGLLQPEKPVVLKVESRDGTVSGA

Structure (SMILES)	inhibition at 30 min, 10 µM (CYP2C19)	inhibition at 30 min, 10 µM (CYP2B6)	inhibition at 30 min, 10 µM (CYP2D6)	inhibition at 30 min, 10 µM (CYP2C8 [1])	CYP-2C8 (Amodiaquine) mean percentage CYP inhibition (CYP2C8 [2])	also measured
CNS(=O)(=O)Nc1cccc(Cc2c(CN3CCNCC3)c3ccc(OC(=O)N(C)C)cc3oc2=O)c1Cl [Compound 246, 3-(2-chloro-3-((N-methylsulfamoyl)amino)benzyl)-2-oxo-4-(piperazin-1-ylmethyl)-2H-chromen-7-yl dimethylcarbamate hydrochloride]	22%	29.7%	5.1%	10.5%	–	inhibition at 30 min, 10 µM (CYP3A4): 16.2%
CCS(=O)(=O)Nc1cccc(Cc2c(CN(C)C)c3ccc(OC(=O)N(C)C)cc3oc2=O)c1F [Compound 120]	–	–	–	–	21.9%	–
CNS(=O)(=O)Nc1cccc(Cc2c(CN3CCNCC3)c3cc(F)c(OC(=O)N(C)C)cc3oc2=O)c1F [Compound 134]	–	–	–	–	78.8%	A549-CRAF BP 100 nM, 2 h [3]: 26.9
CCCS(=O)(=O)Nc1cccc(Cc2c(CN3CCNCC3)c3cc(Cl)c(OC(=O)N(C)C)cc3oc2=O)c1F [Compound 167]	–	–	–	–	61.8%	–
CCS(=O)(=O)Nc1cccc(Cc2c(CN3CCNCC3)c3cc(Cl)c(OC(=O)N(C)C)cc3oc2=O)c1Cl [Compound 257, 6-chloro-3-(2-chloro-3-(ethylsulfonamido)benzyl)-2-oxo-4-(piperazin-1-ylmethyl)-2H-chromen-7-yl dimethylcarbamate hydrochloride]	47.5%	13.7%	10.1%	97.5%	–	inhibition at 30 min, 10 µM (CYP3A4): 67.4%
CNS(=O)(=O)Nc1nccc(Cc2c(C)c3ccc(Oc4ncccn4)cc3oc2=O)c1F [Reference-2, reference compound]	–	–	–	–	–	microsomal CLint at 1 μM [4, 8]: < 15 µL/min/mg; half-life at 1 μM [5]: 18 min; microsomal CLint at 1 μM [5]: 78 µL/min/mg; chromatographic logD [6]: 3.6; CRAF A549 pMEK:tMEK [100 nM; 2 hr] [3]: 2.09
CNS(=O)(=O)Nc1cccc(Cc2c(CN(C)C)c3ccc(OC(=O)N(C)C)cc3oc2=O)c1Cl [Compound 274, 3-(2-chloro-3-((N-methylsulfamoyl)amino)benzyl)-4-((dimethylamino)methyl)-2-oxo-2H-chromen-7-yl dimethylcarbamate]	15.1%	-0.6%	2.5%	11.9%	–	pERK/tERK ratio normalized to DMSO [7]: 0.477
CCN(C)Cc1c(Cc2cccc(NS(=O)(=O)NC)c2Cl)c(=O)oc2cc(OC(=O)N(C)C)ccc12 [Compound 245, 3-(2-chloro-3-((N-methylsulfamoyl)amino)benzyl)-4-((ethyl(methyl)amino)methyl)-2-oxo-2H-chromen-7-yl dimethylcarbamate]	29%	6%	13.7%	30.4%	–	–
CNS(=O)(=O)Nc1cccc(Cc2c(CN3CCNCC3)c3cc(Cl)c(OC(=O)N(C)C)cc3oc2=O)c1Cl [Compound 256, 6-chloro-3-(2-chloro-3-((N-methylsulfamoyl)amino)benzyl)-2-oxo-4-(piperazin-1-ylmethyl)-2H-chromen-7-yl dimethylcarbamate hydrochloride]	40.8%	1.9%	7.1%	97%	–	inhibition at 30 min, 10 µM (CYP3A4): 61.8%
CNS(=O)(=O)Nc1cccc(Cc2c(CN(C)C)c3cc(F)c(OC(=O)N(C)C)cc3oc2=O)c1F [Compound 25]	–	–	–	–	77.2%	A549-CRAF BP 100 nM, 2 h [3]: 71
CNS(=O)(=O)Nc1cccc(Cc2c(CN(C)C)c3ccc(OC(=O)N(C)C)cc3oc2=O)c1F [Compound 9]	–	–	–	–	15.5%	Human Clint [4, 9]: 40 µL/min/mg; Human Microsome (t1/2 min) [4, 9]: 35 min; A375 pERK:tERK ratio [10 nM; 2 hr] [7]: 0.71; Mouse Clint [5, 9]: 32 µL/min/mg; Mouse Microsome (t1/2 min) [5, 9]: 44 min; eLogD (lipophilicity; pH = 7.4) [6]: 3.0; A549-CRAF BP 100 nM, 2 h [3]: 44.9 (mean, n = 8); CRAF A549 pMEK:tMEK [100 nM; 2 hr] [3]: 0.47
CNS(=O)(=O)Nc1nccc(Cc2c(CN(C)C)c3ccc(OC(=O)N(C)C)cc3oc2=O)c1F [Compound 124]	–	–	–	–	59.0%	–
Cn1cnc2c(F)c(Nc3ccc(Br)cc3Cl)c(C(=O)NOCCO)cc21 [Reference-1, Selumetinib]	–	–	–	–	–	half-life at 1 μM [4, 8]: > 90 min; A375 pERK:tERK ratio [10 nM; 2 hr] [7]: 0.59; pERK/tERK ratio normalized to DMSO [7]: 0.199; half-life at 1 μM [5]: 18 min; microsomal CLint at 1 μM [5]: 78 µL/min/mg; chromatographic logD [6]: 3.6; CRAF A549 pMEK:tMEK [100 nM; 2 hr] [3]: 2.09

From patent US20250179057A1, “MEK IMMUNE ONCOLOGY INHIBITORS AND THERAPEUTIC USES THEREOF” (Immuneering Corporation, priority 2022, published 2025)
